The values that follow come from US12187672B2, “1,2-diacylglycerol compound, preparation method therefor, and immunomodulator containing same as active ingredient” (ENZYCHEM LIFESCIENCES CORPORATION, priority 2018, dated 2025).

Molecules are shown by their SMILES.

For one assay, the system named is IL-6. Put plainly: LPS-induced IL-6 secretion reduction in RAW264.7 cells (ELISA). It counts as cell-based, mouse. The conditions noted are these: sample 100 μg/ml 1 h, then LPS 1 μg/ml 24 h, Table 3. The gist of the method:
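Mouse RAW264.7 macrophages in DMEM/10% FBS were plated at 5×10^4 cells/ml, rested for 15 h, treated with compound for 1 h, then stimulated with 1 μg/ml LPS for 24 h at 37 °C. IL-6 in the supernatant was measured by sandwich ELISA (HRP, OD 450 nm) and expressed as reduction rate or concentration.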

Another assay has as its system CXCL8 (IL-8). Nature of the assay: CXCL8 (IL-8) expression reduction in Gemcitabine-treated THP-1 cells (ELISA). It counts as cell-based, human. The conditions noted are these: THP-1 cells; sample 100 μg/ml 1 h, then Gemcitabine 2 μg/ml 24 h. In outline: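 Human THP-1 macrophage-like cells in RPMI/10% FBS, plated at 1×10^6 cells/ml, pretreated 1 h with compound, then stimulated with Gemcitabine (2 μg/ml) for 24 h at 37° C, 5% CO2. Secreted IL-8 in the supernatant was measured by sandwich ELISA, read at 450 nm.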

The test system of another assay is IL-4. Nature of the assay: PKC activator-induced IL-4 secretion reduction in EL-4 cells (ELISA). It counts as cell-based, mouse. As to conditions: sample 100 μg/ml 2 h, then PKC activator 18 h, Table 12. In outline: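 Mouse EL-4 lymphoma cells in DMEM/10% FBS pretreated 2 h with compound, then stimulated with 0.5 μg/ml PKC activator (PMA type) for 18 h at 37 °C. Secreted IL-4 in supernatant quantified by sandwich ELISA (OD 450 nm) and expressed as reduction rate.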

Another assay has as its system STAT3. Put plainly: STAT3 activity, pGL4.47 SIE luciferase reporter in LPS-treated RAW264.7 cells. As to conditions: sample 100 μg/ml 1 h, then LPS 1 μg/ml 18 h. It is filed as cell-based, mouse. The method, then: pGL4.47 [luc2P/SIE/Hygro] vector containing the sis-Inducible Element that binds to STAT3 was injected into RAW264.7 cells to confirm the degree of STAT3 activity. In DMEM (Hyclone, Thermo Scientific) medium to which 10% Fetal Bovine Serum was added, RAW264.7 cells were cultured at a concentration of 1×10^5 cells/ml, and maintained in a 5% CO2 humidified incubator at 37° C. The cultured RAW264.7 cells were inoculated into a 48 well plate by 1×10^5 cells/ml and stabilized for 18 hours. Thereafter, the pGL4.47 [luc2P/SIE/Hygro] vector containing sis-Inducible Element was mixed with Attractene to induce complex formation at room temperature for 15 minutes. This complex was treated with the cells and then further incubated for 18 hours. Thereafter, the culture solution was treated with a glycerol derivative compounds of the type shown in Table 5 below for 1 hour and then LPS (1 μg/ml) was treated and further incubated for 18 hours for STAT3 activity. Thereafter, the culture supernatant was removed for each well, and the remaining cells were lysed with a cell lysis buffer, and then cell lysate was recovered. 90 μl of luciferase reagent was mixed with 10 μl of the recovered cell lysate, and the degree of fluorescence was confirmed using a luminometer.

`CCCCC/C=C\C/C=C\CCCCCCCC(=O)OC(COC(=O)CC)COC(=O)CCCCCCCCC` (stereo not shown) [EC_A97]: the “IL-6 concentration (average ± deviation)” value in the assay on IL-6 turned out to be 0.745 ± 0.015 pg/µL. For the same compound, the “CXCL8 [IL-8] concentration (average ± deviation)” value in the assay on CXCL8 (IL-8) was 96.2 ± 0.2 pg/µL. Moreover, in the assay with IL-4, the “IL-4 concentration (average ± deviation)” value came out at 541.5 ± 20.5 pg/µL. In the assay with STAT3, the “STAT3 activity_Luciferase activity (average ± deviation)” value is 573.2 ± 146.7.
